In PubChem BioAssay (NCI):
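Step 1: Grow cells in 96-well plates. Step 2: Expose to compound for 48 hours at 5 concentrations. Step 3: Interpolate endpoints linearly; if unreached, use highest concentration. GI50 = concentration required for 50% inhibition of growth. Definition used: TGI = concentration required for complete inhibition of growth.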

Columns and labels:
Test in all cases: NCI-60 cell line screen, 48 h
A498 renal = test system: A498 renal
CCRF-CEM leukemia = test system: CCRF-CEM leukemia
COLO 205 colon = test system: COLO 205 colon
HCT-15 colon = test system: HCT-15 colon
HT29 colon = test system: HT29 colon
IGROV1 ovarian = test system: IGROV1 ovarian
SF-295 CNS = test system: SF-295 CNS
SK-MEL-28 melanoma = test system: SK-MEL-28 melanoma
SN12C renal = test system: SN12C renal
SR leukemia = test system: SR leukemia

SMILES	GI50 (A498 renal)	TGI (A498 renal)	GI50 (CCRF-CEM leukemia)	TGI (CCRF-CEM leukemia)	GI50 (COLO 205 colon)	TGI (COLO 205 colon)	GI50 (HCT-15 colon)	TGI (HCT-15 colon)	GI50 (HT29 colon)	TGI (HT29 colon)	GI50 (IGROV1 ovarian)	TGI (IGROV1 ovarian)	GI50 (SF-295 CNS)	TGI (SF-295 CNS)	GI50 (SK-MEL-28 melanoma)	TGI (SK-MEL-28 melanoma)	GI50 (SN12C renal)	TGI (SN12C renal)	GI50 (SR leukemia)	TGI (SR leukemia)
C[C@]12CC[C@@H]3c4ccc(Oc5nc(N6CC6)nc(N6CC6)n5)cc4CC[C@H]3[C@@H]1CCC2=O	1.88 µM	5.79 µM	1.6 µM	16.2 µM	3.35 µM	16.2 µM	2.85 µM	18.6 µM	4.39 µM	19.4 µM	3.3 µM	22.2 µM	1.17 µM	15.3 µM	6.01 µM	42.8 µM	1.74 µM	15.8 µM	0.351 µM	11.4 µM
Nc1c(-c2ccc(Br)cc2)[n+]([O-])c2ccccc2[n+]1[O-]		> 100 µM				> 100 µM		> 100 µM		> 100 µM		> 100 µM		> 100 µM		> 100 µM		> 100 µM		
CSc1ccc(/C=C2/C[N+](C)(C)C/C(=C/c3ccc(SC)cc3)C2=O)cc1				31.5 µM		17.8 µM		> 100 µM						65 µM		20.9 µM		21.2 µM		71.7 µM
CCOC(=O)NC(=O)c1cn(CCCOC(=O)NCCCCCCNC(=O)OCCCn2c(=O)c(C(=O)NC(=O)OCC)cn(C)c2=O)c(=O)n(C)c1=O		> 100 µM		> 100 µM		> 100 µM		> 100 µM		> 100 µM		> 100 µM				> 100 µM		> 100 µM		
CN(C)C(=S)/N=c1\ss/c(=N\C(=S)N(C)C)n1-c1ccc2c(c1)OCO2		> 100 µM						> 100 µM				> 100 µM		> 100 µM		> 100 µM		> 100 µM		> 100 µM
CCc1cccc(C)c1NC(C)=O		> 100 µM		> 100 µM				> 100 µM		> 100 µM		> 100 µM		> 100 µM		> 100 µM				
CCOC(=O)[C@H]1Nc2ccc(C)cc2C2c3ccccc3CC21 (stereo partly specified)		> 100 µM				> 100 µM		> 100 µM		> 100 µM		> 100 µM		> 100 µM		> 100 µM		> 100 µM		> 100 µM
Cc1ccc(NC(=O)C2C(=O)N(c3ccc(C)c(C)c3)C(=O)/C2=N/O)cc1C (stereo unspecified)		> 100 µM		> 100 µM		> 100 µM		> 100 µM		> 100 µM		> 100 µM		> 100 µM		> 100 µM		> 100 µM		
CCCCC/C=C/C/C=C/CCCCCCCC1=NC(C)(C)CN1C(C)C	2.35 µM	15.5 µM			1.47 µM	2.79 µM	1.63 µM	3.17 µM	1.38 µM	2.74 µM	1.23 µM	2.47 µM	1.49 µM	2.83 µM	1.7 µM	3.07 µM	1.71 µM	4.08 µM		
Cc1cc(C)cc(Nc2cc(C)nc3nc(C(F)(F)F)nn23)c1	29 µM	> 100 µM			> 100 µM	> 100 µM	> 100 µM	> 100 µM	> 100 µM	> 100 µM	> 100 µM	> 100 µM	32.3 µM	> 100 µM	> 100 µM	> 100 µM	> 100 µM	> 100 µM	> 100 µM	> 100 µM
CNC=O.[O]=[Ge].[O]=[Ge].[O]=[Ge].[O]=[Ge][OH].[O]=[Ge][OH]		> 100 µM		> 100 µM				> 100 µM		> 100 µM		> 100 µM		> 100 µM		> 100 µM		> 100 µM		> 100 µM
O=S(O)CCCCSSCCCCSSCCCCS(=O)O		> 100 µM		64.6 µM		83.6 µM		> 100 µM				> 100 µM		> 100 µM		> 100 µM		> 100 µM		
N#CCCN(CCC#N)c1ccc(C(=O)NN)cc1		> 100 µM		> 100 µM		> 100 µM		> 100 µM		> 100 µM		> 100 µM		> 100 µM		> 100 µM		> 100 µM		
Cc1cccc(C(C)(C)C)c1NC(=O)CCc1n[nH]c(=S)o1		> 100 µM		> 100 µM		47.6 µM		49 µM		> 100 µM		> 100 µM		> 100 µM		> 100 µM		> 100 µM		
NCCCNCCSSCCCCS(=O)O		> 100 µM				35.7 µM		> 100 µM		> 100 µM		> 100 µM		> 100 µM		55.2 µM		> 100 µM		29.3 µM
CCN(CC)C(=O)C/C(C)=N/NC(=O)c1ccncc1				> 100 µM		> 100 µM				> 100 µM		> 100 µM		> 100 µM		> 100 µM				
Cn1cc(-c2csc(-c3cccc(F)c3)n2)c2cccnc21			35.9 µM	> 100 µM	15.7 µM	30.1 µM	14 µM	35.7 µM	14.2 µM	27.9 µM	21.2 µM	47.5 µM	14.9 µM	33.7 µM	17.6 µM	32.8 µM	15.6 µM	29.5 µM	13.5 µM	> 100 µM
Cc1c2c(nn1-c1ccc(S(=O)(=O)/N=C3\SCC(=O)N3C(=O)c3ccccc3)cc1)-c1ccccc1CC2			21 µM	49 µM			22.4 µM	49.5 µM	63.5 µM	> 100 µM	> 100 µM	> 100 µM	21.6 µM	58.2 µM	52.5 µM	> 100 µM	19.2 µM	45.8 µM	69.9 µM	> 100 µM
N#C/C(C(=S)Nc1ccccc1)=C1/NN=C2c3ccccc3C(=O)NN21	21.3 µM	53.1 µM			24.9 µM	> 100 µM	27.6 µM	> 100 µM	29.2 µM	> 100 µM	35.6 µM	> 100 µM	17.1 µM	49.5 µM	25.3 µM	97.7 µM	40.7 µM	> 100 µM	19.5 µM	> 100 µM
